Activity calls are given as the source filed them.
Columns and labels:
Format in all cases: functional
[1] = test system: Vero; test: viability of Vero cells under compound – cytotoxicity control for flavivirus capping enzyme inhibitors (AID 588742); details: Chlorocebus sabaeus
[2] = target: Megakaryocyte-associated tyrosine-protein kinase (Homo sapiens, UniProt P42679);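 further: affinity measured as one member of a kinase panel (Navigating the Kinome) against MATK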
[3] = target: Tyrosine-protein kinase JAK2 (Homo sapiens, UniProt O60674);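 further: JAK2 tested as one member of a kinase panel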
[4] = target: Protein kinase C zeta type (Homo sapiens, UniProt Q05513);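 further: measured as one member of a broad kinase profiling panel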
[5] = target: cGMP-dependent protein kinase 1 (Homo sapiens, UniProt Q13976);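 further: value from a kinome panel screen with PRKG1 as the panel member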
[6] = target: 5'-AMP-activated protein kinase catalytic subunit alpha-1 (Homo sapiens, UniProt Q13131)
[7] = target: Ribosomal protein S6 kinase beta-1 (Homo sapiens, UniProt P23443);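 further: measured as one member of a kinome-wide profiling panel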
Chain of Ribosomal protein S6 kinase beta-1 (P23443 whole entry): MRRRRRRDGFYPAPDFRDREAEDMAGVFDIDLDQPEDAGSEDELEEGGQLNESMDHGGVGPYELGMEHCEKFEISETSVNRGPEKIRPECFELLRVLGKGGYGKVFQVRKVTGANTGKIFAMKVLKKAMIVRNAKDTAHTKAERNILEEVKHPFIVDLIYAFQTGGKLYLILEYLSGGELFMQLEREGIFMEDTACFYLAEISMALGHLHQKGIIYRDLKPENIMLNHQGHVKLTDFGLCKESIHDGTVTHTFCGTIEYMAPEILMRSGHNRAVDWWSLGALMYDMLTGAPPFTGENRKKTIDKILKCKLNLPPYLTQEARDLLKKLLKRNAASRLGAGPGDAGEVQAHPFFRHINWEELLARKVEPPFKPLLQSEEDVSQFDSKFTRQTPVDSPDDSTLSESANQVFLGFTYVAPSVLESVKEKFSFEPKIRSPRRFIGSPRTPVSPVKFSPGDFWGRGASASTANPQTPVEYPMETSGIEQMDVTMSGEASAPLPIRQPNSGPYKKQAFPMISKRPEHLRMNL

[8] = target: Testis-specific serine/threonine-protein kinase 2 (Homo sapiens, UniProt Q96PF2);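 further: part of the Navigating the Kinome panel, target entry STK22B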
[9] = target: Mast/stem cell growth factor receptor Kit (Homo sapiens, UniProt P10721);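 further: KIT entry within a kinase panel assay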
Chain of Mast/stem cell growth factor receptor Kit (P10721 whole entry): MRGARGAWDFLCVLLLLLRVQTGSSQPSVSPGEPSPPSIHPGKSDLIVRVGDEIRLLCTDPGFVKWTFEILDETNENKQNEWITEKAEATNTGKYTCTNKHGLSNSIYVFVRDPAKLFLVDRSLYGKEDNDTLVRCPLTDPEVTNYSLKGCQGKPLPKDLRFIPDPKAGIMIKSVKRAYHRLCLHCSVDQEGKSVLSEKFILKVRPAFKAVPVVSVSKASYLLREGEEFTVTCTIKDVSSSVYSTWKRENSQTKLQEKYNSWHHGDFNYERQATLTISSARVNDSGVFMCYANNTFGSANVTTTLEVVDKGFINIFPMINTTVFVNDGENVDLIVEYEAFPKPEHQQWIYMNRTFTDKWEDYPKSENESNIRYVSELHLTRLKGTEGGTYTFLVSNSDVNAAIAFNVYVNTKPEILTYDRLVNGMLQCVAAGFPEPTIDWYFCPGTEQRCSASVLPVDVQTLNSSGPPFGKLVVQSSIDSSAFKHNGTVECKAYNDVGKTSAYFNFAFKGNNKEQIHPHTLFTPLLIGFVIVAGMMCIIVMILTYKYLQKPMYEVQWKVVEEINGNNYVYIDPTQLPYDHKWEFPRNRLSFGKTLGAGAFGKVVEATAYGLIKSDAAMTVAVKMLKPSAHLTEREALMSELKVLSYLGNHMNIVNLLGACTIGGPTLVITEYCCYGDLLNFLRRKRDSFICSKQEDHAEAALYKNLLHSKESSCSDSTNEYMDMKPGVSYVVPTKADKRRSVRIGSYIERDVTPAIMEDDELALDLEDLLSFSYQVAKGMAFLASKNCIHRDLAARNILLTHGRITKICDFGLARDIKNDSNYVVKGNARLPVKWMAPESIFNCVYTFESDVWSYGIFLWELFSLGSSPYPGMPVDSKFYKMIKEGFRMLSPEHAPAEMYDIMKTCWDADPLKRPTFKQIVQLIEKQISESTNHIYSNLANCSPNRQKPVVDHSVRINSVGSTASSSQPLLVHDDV

[10] = target: Serine/threonine-protein kinase PAK 4 (Homo sapiens, UniProt O96013);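 further: value obtained within a kinome profiling panel in which PAK4 was one of the panel members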
[11] = target: Calcium/calmodulin-dependent protein kinase type II subunit delta (Homo sapiens, UniProt Q13557)
[12] = target: Tyrosine-protein kinase JAK3 (Homo sapiens, UniProt P52333)
[13] = target: Casein kinase I isoform gamma-1 (Homo sapiens, UniProt Q9HCP0);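 further: measured as the CSNK1G1 member of a kinome profiling panel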
[14] = target: Proto-oncogene tyrosine-protein kinase ROS (Homo sapiens, UniProt P08922);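 further: ROS1 tested as one member of a kinome-wide kinase panel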
[15] = target: Insulin receptor (Homo sapiens, UniProt P06213);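 further: insulin receptor kinase tested as one member of a kinome-wide kinase panel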
Chain of Insulin receptor (P06213 28-758 limits assumed): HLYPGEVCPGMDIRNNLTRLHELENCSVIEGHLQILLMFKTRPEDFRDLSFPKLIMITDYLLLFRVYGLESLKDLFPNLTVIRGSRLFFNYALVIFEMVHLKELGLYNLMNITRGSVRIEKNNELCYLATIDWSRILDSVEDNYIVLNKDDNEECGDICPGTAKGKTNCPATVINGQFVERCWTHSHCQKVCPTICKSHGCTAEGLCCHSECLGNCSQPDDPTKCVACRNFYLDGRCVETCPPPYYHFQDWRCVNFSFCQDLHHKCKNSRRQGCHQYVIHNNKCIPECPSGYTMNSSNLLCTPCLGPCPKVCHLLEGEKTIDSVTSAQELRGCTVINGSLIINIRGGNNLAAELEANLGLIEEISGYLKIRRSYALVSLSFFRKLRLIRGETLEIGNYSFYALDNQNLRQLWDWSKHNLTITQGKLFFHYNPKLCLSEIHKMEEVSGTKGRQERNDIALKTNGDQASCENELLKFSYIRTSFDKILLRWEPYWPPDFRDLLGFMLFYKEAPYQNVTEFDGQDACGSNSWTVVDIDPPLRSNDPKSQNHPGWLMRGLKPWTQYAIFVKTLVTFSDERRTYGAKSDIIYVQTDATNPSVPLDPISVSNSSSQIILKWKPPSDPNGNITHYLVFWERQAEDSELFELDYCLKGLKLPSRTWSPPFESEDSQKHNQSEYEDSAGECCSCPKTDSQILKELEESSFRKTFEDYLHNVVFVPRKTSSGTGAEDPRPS
Chain of Insulin receptor (P06213 763-1382 limits assumed): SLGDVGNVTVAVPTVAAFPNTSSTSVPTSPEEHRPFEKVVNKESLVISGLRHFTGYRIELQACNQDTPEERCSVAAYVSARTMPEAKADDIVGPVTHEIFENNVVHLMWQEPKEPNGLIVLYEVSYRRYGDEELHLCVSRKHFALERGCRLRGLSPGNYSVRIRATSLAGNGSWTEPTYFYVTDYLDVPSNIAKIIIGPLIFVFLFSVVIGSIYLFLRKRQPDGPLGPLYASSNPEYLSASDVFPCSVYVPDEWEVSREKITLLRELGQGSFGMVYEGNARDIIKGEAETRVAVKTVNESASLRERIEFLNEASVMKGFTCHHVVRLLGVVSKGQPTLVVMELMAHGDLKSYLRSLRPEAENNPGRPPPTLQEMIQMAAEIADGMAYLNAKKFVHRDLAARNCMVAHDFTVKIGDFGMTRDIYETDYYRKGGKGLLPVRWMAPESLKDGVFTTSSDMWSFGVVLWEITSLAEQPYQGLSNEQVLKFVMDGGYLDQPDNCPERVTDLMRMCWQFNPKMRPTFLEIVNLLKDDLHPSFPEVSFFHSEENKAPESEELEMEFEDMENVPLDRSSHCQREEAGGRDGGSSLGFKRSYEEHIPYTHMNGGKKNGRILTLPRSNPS

[16] = target: Mitogen-activated protein kinase kinase kinase 20 (Homo sapiens, UniProt Q9NYL2)
[17] = target: Receptor-type tyrosine-protein kinase FLT3 (Homo sapiens, UniProt P36888);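 further: FLT3 was tested as one member of a kinome-wide kinase panel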
Chain of Receptor-type tyrosine-protein kinase FLT3 (P36888 whole entry): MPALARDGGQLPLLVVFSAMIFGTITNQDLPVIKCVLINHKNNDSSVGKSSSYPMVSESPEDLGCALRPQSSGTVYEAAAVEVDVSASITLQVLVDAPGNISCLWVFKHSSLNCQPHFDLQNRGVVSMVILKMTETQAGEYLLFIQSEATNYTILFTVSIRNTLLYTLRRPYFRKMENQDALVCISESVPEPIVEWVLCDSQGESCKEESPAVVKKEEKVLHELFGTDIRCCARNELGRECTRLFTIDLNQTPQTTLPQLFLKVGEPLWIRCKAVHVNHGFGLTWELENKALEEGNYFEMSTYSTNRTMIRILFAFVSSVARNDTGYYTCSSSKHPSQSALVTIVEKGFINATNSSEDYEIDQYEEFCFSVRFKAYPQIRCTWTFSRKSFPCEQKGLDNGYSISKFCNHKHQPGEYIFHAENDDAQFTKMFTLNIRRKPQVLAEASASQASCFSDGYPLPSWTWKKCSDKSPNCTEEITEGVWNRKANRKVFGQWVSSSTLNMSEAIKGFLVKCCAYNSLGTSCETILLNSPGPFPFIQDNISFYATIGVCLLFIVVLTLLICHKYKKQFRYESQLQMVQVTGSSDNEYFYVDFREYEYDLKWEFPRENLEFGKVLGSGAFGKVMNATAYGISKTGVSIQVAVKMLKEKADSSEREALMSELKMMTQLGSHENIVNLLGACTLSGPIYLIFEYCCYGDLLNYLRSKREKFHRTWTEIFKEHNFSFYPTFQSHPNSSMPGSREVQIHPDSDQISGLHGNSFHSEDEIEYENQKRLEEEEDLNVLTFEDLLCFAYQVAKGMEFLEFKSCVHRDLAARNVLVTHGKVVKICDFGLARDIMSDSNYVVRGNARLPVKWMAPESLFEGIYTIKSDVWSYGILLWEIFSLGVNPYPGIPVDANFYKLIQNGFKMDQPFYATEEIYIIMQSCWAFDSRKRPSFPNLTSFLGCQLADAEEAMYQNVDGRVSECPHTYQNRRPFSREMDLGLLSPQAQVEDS

[18] = target: Receptor tyrosine-protein kinase erbB-2 (Homo sapiens, UniProt P04626); test: Navigating the Kinome. Panel member name: ERBB2
Chain of Receptor tyrosine-protein kinase erbB-2 (P04626 whole entry): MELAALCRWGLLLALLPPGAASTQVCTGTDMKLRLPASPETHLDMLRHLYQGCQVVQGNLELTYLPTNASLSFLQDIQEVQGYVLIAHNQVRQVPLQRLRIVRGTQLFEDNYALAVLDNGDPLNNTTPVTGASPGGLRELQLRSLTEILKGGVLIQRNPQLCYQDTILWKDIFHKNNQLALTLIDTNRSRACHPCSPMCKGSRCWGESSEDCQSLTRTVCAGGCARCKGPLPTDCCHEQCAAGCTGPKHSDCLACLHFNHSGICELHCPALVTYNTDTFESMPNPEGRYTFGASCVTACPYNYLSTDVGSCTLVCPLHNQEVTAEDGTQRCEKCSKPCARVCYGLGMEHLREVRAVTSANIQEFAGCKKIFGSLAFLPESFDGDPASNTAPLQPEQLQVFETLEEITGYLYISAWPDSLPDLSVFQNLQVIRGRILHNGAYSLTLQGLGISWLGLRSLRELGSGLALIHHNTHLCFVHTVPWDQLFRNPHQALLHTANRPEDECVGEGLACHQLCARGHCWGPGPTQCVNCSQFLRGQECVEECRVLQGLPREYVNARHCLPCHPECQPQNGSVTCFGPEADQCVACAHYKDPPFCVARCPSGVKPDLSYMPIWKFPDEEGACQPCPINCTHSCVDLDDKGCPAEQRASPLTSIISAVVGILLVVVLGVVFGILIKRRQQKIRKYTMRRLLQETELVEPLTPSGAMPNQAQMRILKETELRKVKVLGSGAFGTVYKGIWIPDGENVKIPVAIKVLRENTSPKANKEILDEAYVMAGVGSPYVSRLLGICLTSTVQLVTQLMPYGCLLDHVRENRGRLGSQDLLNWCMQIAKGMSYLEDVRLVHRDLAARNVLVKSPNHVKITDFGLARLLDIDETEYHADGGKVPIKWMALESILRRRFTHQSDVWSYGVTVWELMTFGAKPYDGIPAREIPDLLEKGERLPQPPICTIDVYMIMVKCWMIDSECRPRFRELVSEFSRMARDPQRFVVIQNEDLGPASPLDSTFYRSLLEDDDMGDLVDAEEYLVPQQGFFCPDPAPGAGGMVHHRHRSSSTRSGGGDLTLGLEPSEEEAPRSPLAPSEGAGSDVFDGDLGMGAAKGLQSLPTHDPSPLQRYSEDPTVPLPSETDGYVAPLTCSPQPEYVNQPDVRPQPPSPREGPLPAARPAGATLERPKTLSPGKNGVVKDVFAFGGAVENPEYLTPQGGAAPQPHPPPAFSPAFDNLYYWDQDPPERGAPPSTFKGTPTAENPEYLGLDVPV

[19] = target: Ephrin type-A receptor 2 (Homo sapiens, UniProt P29317);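 further: EPHA2 tested as one member of a kinome-wide kinase panel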
[20] = target: Serine/threonine-protein kinase Nek4 (Homo sapiens, UniProt P51957)
[21] = target: Dual specificity tyrosine-phosphorylation-regulated kinase 4 (Homo sapiens, UniProt Q9NR20)
[22] = target: Protein kinase C iota type (Homo sapiens, UniProt P41743);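 further: measured within a kinome-wide kinase panel, PRKCI as panel member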
[23] = target: Calcium/calmodulin-dependent protein kinase type 1 (Homo sapiens, UniProt Q14012)
[24] = target: Tyrosine-protein kinase Fyn (Homo sapiens, UniProt P06241)
[25] = target: Serine/threonine-protein kinase pim-2 (Homo sapiens, UniProt Q9P1W9);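 further: value comes from a broad kinase panel profiling study in which PIM2 was one of the panel members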
[26] = target: Fibroblast growth factor receptor 3 (Homo sapiens, UniProt P22607)
[27] = target: Receptor tyrosine-protein kinase erbB-4 (Homo sapiens, UniProt Q15303);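 further: ERBB4 member of a kinome-wide kinase profiling panel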
[28] = target: Mitogen-activated protein kinase 12 (Homo sapiens, UniProt P53778);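 further: measured as one member of a kinome-wide kinase profiling panel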
[29] = target: Lymphokine-activated killer T-cell-originated protein kinase (Homo sapiens, UniProt Q96KB5);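 further: value comes from a kinase panel screen in which TOPK was one of the panel members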
[30] = target: Serine/threonine-protein kinase MRCK alpha (Homo sapiens, UniProt Q5VT25)
[31] = target: Macrophage colony-stimulating factor 1 receptor (Homo sapiens, UniProt P07333);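 further: value comes from the Navigating the Kinome screening panel, CSF1R member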
[32] = target: Serine/threonine-protein kinase BRSK1 (Homo sapiens, UniProt Q8TDC3);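 further: measured within a kinome-wide kinase panel, with the target listed as KIAA1811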
[33] = target: Cyclin-dependent kinase 9 (Homo sapiens, UniProt P50750);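 further: value from the CDK9 entry of a kinome-spanning kinase panel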

With O=C(O)c1ccc(NC2=C(Cl)C(=O)c3ccccc3C2=O)cc1 the CC50 [1] was 28.3 µM (active).
In the case of Cc1ccc2nccc(NC(=O)Nc3cccc(C(F)(F)F)n3)c2c1, the Ki [2] is reported as > 2 µM (inactive), the Ki [3] is reported as > 2 µM (inactive) and the Ki [4] is reported as > 7.94 µM (inactive). For the same compound, the Ki [5] was > 2 µM (inactive), the Ki [6] was > 2.51 µM (inactive) and the Ki [7] was > 6.31 µM (inactive). The Ki [8] was > 1.58 µM (inactive), the Ki [9] was > 3.16 µM (inactive) and the Ki [10] was > 5.01 µM (inactive). The Ki [11] was > 6.31 µM (inactive), the Ki [12] was > 3.16 µM (inactive) and the Ki [13] was > 6.31 µM (inactive). The Ki [14] was > 2 µM (inactive), the Ki [15] was > 5.01 µM (inactive) and the Ki [16] was > 7.94 µM (inactive). The Ki [17] was 251 nM (active), the Ki [18] was > 1.58 µM (inactive) and the Ki [19] was > 3.16 µM (inactive). The Ki [20] was > 6.31 µM (inactive), the Ki [21] was > 7.94 µM (inactive) and the Ki [22] was > 5.01 µM (inactive). For the same compound, the Ki [23] was > 3.16 µM (inactive), the Ki [24] was > 794 nM (inactive) and the Ki [25] was > 1.58 µM (inactive). The Ki [26] was > 2 µM (inactive), the Ki [27] was > 3.98 µM (inactive) and the Ki [28] was > 6.31 µM (inactive). For the same compound, the Ki [29] was 2 µM (active), the Ki [30] was > 10 µM (inactive) and the Ki [31] was > 2.51 µM (inactive). For the same compound, the Ki [32] was > 10 µM (inactive).
In the case of Cc1nn(C)c2sc3c(=O)[nH]cnc3c12, the Ki [15] is reported as > 50.1 µM (inactive), the Ki [33] is reported as > 63.1 µM (inactive) and the Ki [31] is reported as > 63.1 µM (inactive).
With Cc1c(/N=C2\C=CC(=O)c3ccccc32)c(=O)n(-c2ccccc2)n1C the CC50 [1] was 20.6 µM (active).
In the case of COc1cc2c(cc1F)C(c1ccccc1Cl)=Nc1c(n[nH]c1C)N2 [RG-1530], the Ki [2] is reported as > 2 µM (inactive), the Ki [3] is reported as 0.126 µM (active) and the Ki [4] is reported as > 7.94 µM (inactive). For the same compound, the Ki [5] was > 2 µM (inactive), the Ki [6] was 0.631 µM (active) and the Ki [7] was > 6.31 µM (inactive). The Ki [8] was 1 µM (active), the Ki [9] was 0.2 µM (active) and the Ki [10] was 0.0794 µM (active). The Ki [11] was > 6.31 µM (inactive), the Ki [12] was 0.0794 µM (active) and the Ki [13] was > 6.31 µM (inactive). For the same compound, the Ki [14] was 0.02 µM (active), the Ki [16] was > 7.94 µM (inactive) and the Ki [17] was 79.4 nM (active). For the same compound, the Ki [18] was > 1.58 µM (inactive), the Ki [19] was 0.0501 µM (active) and the Ki [20] was > 6.31 µM (inactive). For the same compound, the Ki [21] was > 7.94 µM (inactive), the Ki [22] was > 5.01 µM (inactive) and the Ki [23] was > 3.16 µM (inactive). For the same compound, the Ki [24] was 316 nM (active), the Ki [25] was > 1.58 µM (inactive) and the Ki [26] was 0.0251 µM (active). For the same compound, the Ki [33] was > 1.58 µM (inactive), the Ki [27] was 2 µM (active) and the Ki [28] was > 6.31 µM (inactive). For the same compound, the Ki [29] was > 10 µM (inactive), the Ki [30] was > 10 µM (inactive) and the Ki [32] was 1.26 µM (active).
